Laboratory results taken from paper PMC12951562, “SH2scan: Mapping SH2 Domain-Ligand Binding Selectivity for Inhibitors and Degraders” (Journal of Medicinal Chemistry, 2026).
Read-outs that look alike come from different tables or passages of the source. Non-standard residues stand in square brackets, D forms with d. Residues, ends and D or L forms follow the SMILES beside them. *: point of attachment. pY = N[C@@H](Cc1ccc(OP(=O)(O)O)cc1)C(=O)O; Caffeoyl = O=C(/C=C/c1ccc(O)c(O)c1)*

Key:
Experiment in all cases: biochemical
Assay type in all cases: binding
[1] = biological target: T1, SOCS3 (Homo sapiens, UniProt O14543); conditions: for KD: dose-response; for remaining activity at 10 µM: read-out: percent of DMSO vehicle control
T1 construct: made in house; host or cells: HEK293 (transient transfection), unpurified extract
T1 sequence (O14543 1-225): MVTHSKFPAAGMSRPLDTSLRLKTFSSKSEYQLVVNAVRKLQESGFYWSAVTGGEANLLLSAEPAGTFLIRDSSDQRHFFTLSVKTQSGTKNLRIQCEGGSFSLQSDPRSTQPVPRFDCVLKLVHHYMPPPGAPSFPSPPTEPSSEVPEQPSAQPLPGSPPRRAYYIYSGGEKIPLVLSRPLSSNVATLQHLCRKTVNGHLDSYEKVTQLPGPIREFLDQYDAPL

[2] = biological target: T2, SRMS (Homo sapiens, UniProt Q9H3Y6); conditions: for KD: dose-response; for remaining activity at 10 µM: read-out: percent of DMSO vehicle control
T2 construct: made in house; host or cells: HEK293 (transient transfection), unpurified extract

[3] = biological target: T3, MATK (Homo sapiens, UniProt P42679); conditions: for remaining activity at 10 µM / percent of DMSO vehicle control at 10 µM: read-out: percent of DMSO vehicle control
T3 construct: the DNA-tagged SH2 domain concentrations used in this study were <0.1 nM; made in house; host or cells: HEK293 (transient transfection, unpurified extract)
T3 sequence (P42679 122-211 limits assumed): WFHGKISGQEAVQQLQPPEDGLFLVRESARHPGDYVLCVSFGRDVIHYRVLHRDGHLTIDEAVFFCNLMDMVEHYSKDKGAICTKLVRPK

[4] = biological target: T4, SOCS7 (Homo sapiens, UniProt O14512); conditions: for remaining activity at 10 µM: read-out: percent of DMSO vehicle control
T4 construct: made in house; host or cells: HEK293 (transient transfection), unpurified extract
T4 sequence (O14512 1-581): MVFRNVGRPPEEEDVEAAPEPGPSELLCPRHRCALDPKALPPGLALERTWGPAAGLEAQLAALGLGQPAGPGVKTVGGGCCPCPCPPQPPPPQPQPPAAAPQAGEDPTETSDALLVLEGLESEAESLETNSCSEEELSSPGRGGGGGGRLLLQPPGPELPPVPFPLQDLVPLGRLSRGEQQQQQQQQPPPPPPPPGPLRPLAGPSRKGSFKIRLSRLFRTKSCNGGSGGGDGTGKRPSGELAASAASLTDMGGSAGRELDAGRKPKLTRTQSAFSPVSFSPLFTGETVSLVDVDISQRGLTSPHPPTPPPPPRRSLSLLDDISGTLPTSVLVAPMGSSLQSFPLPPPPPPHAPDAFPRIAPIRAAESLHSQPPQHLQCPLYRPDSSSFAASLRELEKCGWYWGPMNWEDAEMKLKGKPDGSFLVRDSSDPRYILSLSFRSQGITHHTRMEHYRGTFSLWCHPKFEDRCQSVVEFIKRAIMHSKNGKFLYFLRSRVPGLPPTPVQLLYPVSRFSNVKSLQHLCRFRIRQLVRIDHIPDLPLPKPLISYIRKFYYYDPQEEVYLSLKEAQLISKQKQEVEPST

[5] = biological target: T5, SHC4 (Homo sapiens, UniProt Q6S5L8); conditions: for remaining activity at 10 µM: read-out: percent of DMSO vehicle control
T5 construct: made in house; host or cells: HEK293 (transient transfection), unpurified extract
T5 sequence (Q6S5L8 1-630): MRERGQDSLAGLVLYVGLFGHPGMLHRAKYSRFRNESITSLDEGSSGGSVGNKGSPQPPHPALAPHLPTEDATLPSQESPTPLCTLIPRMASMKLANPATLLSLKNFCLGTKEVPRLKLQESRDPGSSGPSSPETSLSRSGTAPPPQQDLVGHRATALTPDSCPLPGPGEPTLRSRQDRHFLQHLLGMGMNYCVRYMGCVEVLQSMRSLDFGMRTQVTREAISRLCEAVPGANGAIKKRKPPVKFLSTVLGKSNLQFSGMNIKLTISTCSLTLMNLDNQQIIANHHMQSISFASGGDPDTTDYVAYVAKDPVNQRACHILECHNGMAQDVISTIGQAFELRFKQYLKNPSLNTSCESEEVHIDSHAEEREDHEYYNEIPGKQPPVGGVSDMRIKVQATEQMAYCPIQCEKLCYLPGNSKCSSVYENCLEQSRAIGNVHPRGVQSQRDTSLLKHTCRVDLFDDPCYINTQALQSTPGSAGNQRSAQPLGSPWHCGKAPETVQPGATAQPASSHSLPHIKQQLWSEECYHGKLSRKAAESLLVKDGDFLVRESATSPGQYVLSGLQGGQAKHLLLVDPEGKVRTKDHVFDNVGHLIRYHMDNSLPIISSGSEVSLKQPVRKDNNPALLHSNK

[6] = biological target: T6, TXK (Homo sapiens, UniProt P42681); conditions: for remaining activity at 10 µM: read-out: percent of DMSO vehicle control
T6 construct: made in house; host or cells: HEK293 (transient transfection), unpurified extract
T6 sequence (P42681 1-527): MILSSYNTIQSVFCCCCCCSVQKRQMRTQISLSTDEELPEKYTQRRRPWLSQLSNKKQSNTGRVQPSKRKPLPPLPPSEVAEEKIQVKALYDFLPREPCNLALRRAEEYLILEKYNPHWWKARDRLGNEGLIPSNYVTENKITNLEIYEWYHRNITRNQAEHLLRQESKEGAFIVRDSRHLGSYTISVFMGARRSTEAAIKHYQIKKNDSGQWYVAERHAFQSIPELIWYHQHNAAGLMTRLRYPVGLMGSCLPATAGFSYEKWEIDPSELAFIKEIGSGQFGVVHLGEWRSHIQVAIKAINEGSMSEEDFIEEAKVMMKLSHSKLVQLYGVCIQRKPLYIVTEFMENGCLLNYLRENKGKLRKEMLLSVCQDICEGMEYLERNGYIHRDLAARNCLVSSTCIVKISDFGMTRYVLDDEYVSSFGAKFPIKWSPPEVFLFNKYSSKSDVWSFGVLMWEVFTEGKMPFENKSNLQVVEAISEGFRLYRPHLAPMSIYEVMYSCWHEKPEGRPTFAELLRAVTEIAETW

[7] = biological target: T7, SOCS2 (Homo sapiens, UniProt O14508); conditions: for remaining activity at 10 µM: read-out: percent of DMSO vehicle control
T7 construct: made in house; host or cells: HEK293 (transient transfection), unpurified extract
T7 sequence (O14508 1-198): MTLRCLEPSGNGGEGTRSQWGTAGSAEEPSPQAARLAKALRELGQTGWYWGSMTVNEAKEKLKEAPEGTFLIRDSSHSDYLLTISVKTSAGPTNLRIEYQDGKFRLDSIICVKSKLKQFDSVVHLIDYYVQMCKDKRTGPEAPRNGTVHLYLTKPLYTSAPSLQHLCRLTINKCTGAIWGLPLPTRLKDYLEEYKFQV

[8] = biological target: T8, PLCG1(SH2dom.C-term.) (Homo sapiens, UniProt P19174); conditions: for remaining activity at 10 µM: read-out: percent of DMSO vehicle control
T8 construct: SH2dom.C-term. denotes SH2 domain closest to C-terminus of protein; made in house; host or cells: HEK293 (transient transfection, unpurified extract)
T8 sequence (P19174 668-756 limits assumed): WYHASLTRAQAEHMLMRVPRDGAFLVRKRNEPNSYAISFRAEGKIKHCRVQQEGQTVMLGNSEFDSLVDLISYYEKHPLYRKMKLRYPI

T2 sequence (Q9H3Y6 whole entry): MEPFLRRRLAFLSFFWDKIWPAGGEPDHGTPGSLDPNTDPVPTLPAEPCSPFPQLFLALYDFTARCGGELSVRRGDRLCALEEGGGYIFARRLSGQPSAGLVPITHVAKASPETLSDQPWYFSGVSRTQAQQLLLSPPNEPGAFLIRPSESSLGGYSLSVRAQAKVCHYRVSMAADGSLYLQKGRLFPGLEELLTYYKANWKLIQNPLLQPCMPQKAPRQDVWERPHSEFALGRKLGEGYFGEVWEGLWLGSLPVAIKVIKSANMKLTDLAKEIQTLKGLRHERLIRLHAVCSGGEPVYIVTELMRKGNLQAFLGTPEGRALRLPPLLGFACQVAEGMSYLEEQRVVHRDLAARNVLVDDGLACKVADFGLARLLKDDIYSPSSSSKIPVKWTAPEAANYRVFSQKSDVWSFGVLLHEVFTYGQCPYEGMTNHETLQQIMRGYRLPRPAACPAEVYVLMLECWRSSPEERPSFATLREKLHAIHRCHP

SMILES	remaining activity at 10 µM ([1]; primary screen, 10 μM) [%]	KD [2]	remaining activity at 10 µM ([2]; primary screen, 10 μM) [%]	remaining activity at 10 µM ([3]; primary screen, 10 μM) [%]	remaining activity at 10 µM ([4]; primary screen, 10 μM) [%]	remaining activity at 10 µM ([5]; primary screen, 10 μM) [%]	remaining activity at 10 µM ([6]; primary screen, 10 μM) [%]	remaining activity at 10 µM ([7]; primary screen, 10 μM) [%]	remaining activity at 10 µM ([8]; primary screen, 10 μM) [%]	remaining activity at 10 µM [1] [%]	remaining activity at 10 µM [2] [%]	percent of DMSO vehicle control at 10 µM [3] [%]	remaining activity at 10 µM [4] [%]	remaining activity at 10 µM [5] [%]	remaining activity at 10 µM [6] [%]	remaining activity at 10 µM [7] [%]	remaining activity at 10 µM [8] [%]	further results
C/C(=C\C(=O)N[C@H](C(=O)N1CCC[C@H]1C(=O)N(c1ccccc1)c1ccc(I)cc1)C(C)(C)C)c1ccc(OP(=O)(O)O)cc1 [STAT6-IN-1]	39.3 ± 22.1	No Hit	7.6 ± 0.5	6.5 ± 1.8	34.6 ± 0.1	77.1 ± 7.5	87.1 ± 5.9	0	1.5 ± 2.1	–	–	–	–	–	–	–	–	KD [1]: No Hit; Kd ([3]; dose-response, read-out: KD): 3 ± 0.49 µM; KD ([4]; dose-response): No Hit; Kd ([7]; dose-response, read-out: KD): 1.5 ± 0.87 µM; Kd ([8]; dose-response, read-out: KD): 2.05 ± 0.21 µM
CC[C@H](C)[C@H](NC(=O)[C@H](CCC(=O)O)NC(=O)[C@H](CCC(=O)O)NC(=O)[C@H](Cc1ccc(OP(=O)(O)O)cc1)NC(=O)/C=C/c1ccc(O)c(O)c1)C(=O)N[C@@H](CCC(=O)O)C(=O)O [Caffeic acid-pYEEIE] (Caffeoyl-[pY]EEIE-OH)	–	–	–	–	–	–	–	–	–	5.3 ± 0.3	0.1	83.8 ± 3.5	0.5 ± 0.4	0	2.7 ± 0.3	2.6 ± 0.1	0	Kd [1]: 1.8 ± 2 µM; Kd [2]: 0.0012 ± 0.00073 µM; Kd [4]: 0.28 ± 0.14 µM; Kd [5]: 0.039 ± 0.0061 µM; Kd [6]: 0.95 ± 0.25 µM; Kd [7]: 1.3 ± 0.88 µM; Kd [8]: 0.014 ± 0.011 µM
CC(=O)N1CC[C@H]2CC[C@@H](C(=O)N[C@@H](CCC(N)=O)C(=O)NC(c3ccccc3)c3ccccc3)N2C(=O)[C@@H](NC(=O)c2cc3cc(C(F)(F)P(=O)(O)O)ccc3[nH]2)C1 [SI-109]	–	–	–	–	–	–	–	–	–	153	123	163	124	136	118	142	98 ± 1.4	–
O=C(CCl)Nc1cccc(CNC(=O)[C@H](Cc2ccc(OP(=O)(O)O)cc2)NC(=O)Cc2ccc(F)cc2)c1 [MN551]	24.4	No Hit	1.3 ± 0.6	60.4 ± 2.8	21.9 ± 5	93 ± 4.4	89.1	0	64.1 ± 4.5	–	–	–	–	–	–	–	–	KD [1]: No Hit; Kd ([4]; dose-response, read-out: KD): 8.1 µM; Kd ([7]; dose-response, read-out: KD): 0.4 µM
NC(=O)CC[C@H](NC(=O)[C@@H]1CC[C@@H]2CCN(C(=O)CCCCCC#Cc3cccc4c3CN(C3CCC(=O)NC3=O)C4=O)C[C@H](NC(=O)c3cc4cc(C(F)(F)P(=O)(O)O)ccc4[nH]3)C(=O)N21)C(=O)NC(c1ccccc1)c1ccccc1 (stereo partly shown) [SD-36]	–	–	–	–	–	–	–	–	–	100 ± 1.2	102 ± 1.9	159 ± 5.1	271	100 ± 4.5	101 ± 9.7	98.5 ± 5.4	85.7 ± 0.8	–
CC(=O)N[C@@H](Cc1ccc(CP(=O)(O)O)cc1)C(=O)NC1(C(=O)N[C@@H](CC(N)=O)C(=O)NCCCc2c(O)ccc3ccccc23)CCCCC1 [CGP78850]	–	–	–	–	–	–	–	–	–	116 ± 4.4	65.3 ± 5.9	153 ± 7.1	126 ± 4.2	108 ± 7.4	74.4 ± 2.5	119 ± 4.7	96.8 ± 4.1	–
CC[C@H](C)[C@H](NC(=O)[C@H](CCC(=O)O)NC(=O)[C@H](CCC(=O)O)NC(=O)[C@H](Cc1ccc(OP(=O)(O)O)cc1)NC(C)=O)C(=O)N[C@@H](CCC(=O)O)C(N)=O [Ac-pYEEIE-NH2] (Ac-[pY]EEIE-NH2)	–	–	–	–	–	–	–	–	–	–	–	–	–	–	–	–	–	percent of DMSO vehicle control ([1]; primary screen, 10 μM): 149.7%; percent of DMSO vehicle control ([2]; primary screen, 10 μM): 62.7±1.1%; percent of DMSO vehicle control ([3]; primary screen, 10 μM): 197.1%; percent of DMSO vehicle control ([4]; primary screen, 10 μM): 110.9%; percent of DMSO vehicle control ([5]; primary screen, 10 μM): 119.5%; percent of DMSO vehicle control ([6]; primary screen, 10 μM): 109.9%; percent of DMSO vehicle control ([7]; primary screen, 10 μM): 104.8%; percent of DMSO vehicle control ([8]; primary screen, 10 μM): 37.9±3.6%
O=C(COc1ccc2cc(C(=O)Nc3ccccc3)ccc2c1)NCc1ccc(OP(=O)(O)O)c(OP(=O)(O)O)c1 [Stafib-1]	72.7 ± 29	No Hit	8.9 ± 56.2	59.9 ± 60.2	81 ± 17.8	103	144	47.9 ± 29	78.8 ± 17.8	–	–	–	–	–	–	–	–	–
